Key:
[1] = target: T1, SusD38489 (SusD38489Δ1–25); experiment: SPR, Biacore T200, His-captured protein, single-cycle kinetics, […] fit; design: species or system uncultured Bacteroidota bacterium; conditions: 25 °C; 0.1 M potassium phosphate pH 7 reference buffer; one binding site
T1 construct: gene susD; Sec/SPII signal peptide 1-25 removed; C-terminal His6 from pET21a(+); expressed in E. coli BL21(DE3)

SusD1 (SusD1Δ1–22) = target: T2, SusD1 (SusD1Δ1–22) (Prevotella sp. Sc00044, UniProt W5QTG3); experiment: as above; format: binding
T2 construct: gene susD; Sec/SPII signal peptide 1-22 removed; C-terminal His6 from pET21a(+); expressed in E. coli BL21(DE3)
T2 sequence (W5QTG3 23-580 limits assumed, stated change not applied): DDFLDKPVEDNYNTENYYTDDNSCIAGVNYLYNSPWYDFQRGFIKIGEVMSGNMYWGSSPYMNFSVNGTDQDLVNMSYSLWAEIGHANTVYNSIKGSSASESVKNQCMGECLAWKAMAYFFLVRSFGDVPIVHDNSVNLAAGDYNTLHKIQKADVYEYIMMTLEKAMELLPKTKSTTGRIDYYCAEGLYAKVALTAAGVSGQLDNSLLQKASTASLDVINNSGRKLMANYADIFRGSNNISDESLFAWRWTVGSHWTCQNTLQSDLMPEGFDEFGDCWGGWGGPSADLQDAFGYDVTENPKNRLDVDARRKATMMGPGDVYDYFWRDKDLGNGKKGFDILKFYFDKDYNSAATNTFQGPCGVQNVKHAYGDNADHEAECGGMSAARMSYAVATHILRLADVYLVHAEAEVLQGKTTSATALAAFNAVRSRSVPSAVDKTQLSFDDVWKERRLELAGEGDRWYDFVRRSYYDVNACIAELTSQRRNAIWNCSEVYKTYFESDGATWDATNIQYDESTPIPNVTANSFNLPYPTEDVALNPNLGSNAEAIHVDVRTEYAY

For O=C(OCCO)c1ccc(C(=O)OCCO)cc1 [BHET, Bis(2-Hydroxyethyl) terephthalate], which Kd [1] is on record?
Its Kd is 10 nM.

What about the Kd (SusD1 (SusD1Δ1–22)) of the same compound?
Its Kd is 0.3 nM.

Source: publication PMC11267923, “Metagenome-derived SusD-homologs affiliated with Bacteroidota bind to synthetic polymers” (Applied and Environmental Microbiology, 2024)
